# Experimental data from patent EP3922250A1, “COMPOSITION FOR CORRECTING THE BEHAVIOUR OF CATS AND DOGS” (priority 2019, dated 2021).
# Values joined by “and” are separate entries in the source; they are usually repeats but may differ in a detail not shown here. Identical values can stand only once. Counter-ions that a name gives are not always drawn.
# Experiments:
# [1] = in vivo; cited from earlier work
# domestic cats = conditions: 48 to 50 mg per capita (averaging 10 to 14 mg/kg), one hour after administration
# Description: Based on the data obtained by observing animals under stress, the most frequent symptoms of anxiety and fear common to various stressful situations were selected to assess the severity of their abnormal behavior. They included vocalizing, hypersalivation, overgrooming, abnormal (higher or lower) motion activity, soiling (urination and/or defecation), and 'destructive behavior' consisting in signs of aggression, attempts at damaging ambient objects, etc. For each symptom (based on its severity), points from 0 to 2 were given, which subsequently were totalized individually for each animal or, where appropriate, for a whole group of animals to determine an average value.
# For each of the 6 symptoms (based on its severity), points from 0 to 2 were given, which subsequently were totalized individually for each animal. Therein, a total score of more than 6 points (out of possible 12) was considered to be indicative of an apparent severity of abnormal (changed) behavior.
# To carry out the experiment, 6 domestic cats of different sex and age, weighing 3.5 to 5 kg, were selected, who, according to their owners, felt bad during transportation, showing various forms of abnormal behavior. Herein, the actual presence of stress symptoms and their severity for each cat were assessed from video data provided by their owners. […]
# White Rats = assay: Acute oral toxicity testing, intragastric administration (Miller and Tainter); conditions: for % of deaths / Number of Animals dead: 10 per group, 14 days follow-up
# Description: (§1) This parameter was evaluated on mice and rats in accordance with a conventional procedure for acute toxicity testing of medicinal products (Example 2).
# (§2) In each case, 7 experimental groups and 1 control group of white rats and 7 experimental and 1 control groups of white mice, 10 individuals in each, were formed. The product was administered via an intragastric tube in accordance with the design described in Table I. 1% starch gel was used as the suspending agent.
# (§3) Follow-up period was 14 days. The observation included general condition, behavior, feed and water intake, manifestation of intoxication symptoms, possible deaths.
# female cats = assay: Suppression of behavioral signs of heat in female cats
# male cats = tested on: male cats
# Description: The trials enrolled apparently healthy entire animals (8 male cats and 8 female cats) aged 2 to 6 years, weighing 3 to 4 kg, kept in foster care at BIM Animal Shelter. The females were introduced into the study as they went into estrus. Table XII. Registration details of the cats enrolled in the experiment
# Male cats with pronounced signs of heat were placed in individual cages in a dedicated room where 2 female cats in heat were present (in separate cages in the same room). TR Succinate in the tablet form (for the experimental animals) and placebo tablets (for the control animals) were given in accordance with the same design as in the experiment with female cats. Follow-up observation over the animals was carried out in a similar manner.
# White Mice = assay: Acute oral toxicity testing, intragastric administration (Miller and Tainter); conditions: for % of deaths / Number of Animals dead: 10 per group, 14 days follow-up
# Description: as §1, §2, §3
# [2] = substance, intragastric, in 1% starch gel
# [3] = substance, intragastric, in 1% starch gel, 20160 min
# [4] = female and male cats in heat, single dose 6-8 mg/kg
# [5] = one 100 mg tablet (24 mg active ingredient, 6-8 mg/kg) oral, individual female cats
# [6] = one 100 mg tablet (24 mg active ingredient, 6-8 mg/kg) oral, individual male cats
compound,measurement,setting,value
"O=c1n(CCCN2CCN(c3cccc(Cl)c3)CC2)nc2ccccn12 [TR, Trazodone]",amount of plasma protein binding,[1],89-95%
same,excreted from the body via the kidneys,[1],75%
same,excreted unchanged with bile,[1],about 20%
same,time to reach complete excretion of the substance,[1],98 h
"O=c1n(CCCN2CCN(c3cccc(Cl)c3)CC2)nc2ccccn12 [Trazodone Hydrochloride, reference compound]",sedative action onto the animals,domestic cats,pronounced sedative actions of comparable efficacy
Trazodone Succinate,sedative action onto the animals,domestic cats,pronounced sedative actions of comparable efficacy
same,% of deaths,White Rats; 400 mg/kg intragastric,0%
same,Number of Animals dead,White Rats; 400 mg/kg intragastric,0
same,% of deaths,White Rats; 800 mg/kg intragastric,20.0%
same,Number of Animals dead,White Rats; 800 mg/kg intragastric,2
same,% of deaths,White Rats; 1600 mg/kg intragastric,40.0%
same,Number of Animals dead,White Rats; 1600 mg/kg intragastric,4
same,% of deaths,White Rats; 2700 mg/kg intragastric,70.0%
same,Number of Animals dead,White Rats; 2700 mg/kg intragastric,7
same,% of deaths,White Rats; 3000 mg/kg intragastric,100.0%
same,Number of Animals dead,White Rats; 3000 mg/kg intragastric,10
same,% of deaths,White Rats; 3500 mg/kg intragastric,100.0%
same,Number of Animals dead,White Rats; 3500 mg/kg intragastric,10
same,LD16,White Rats; [2],760 mg/kg
same,LD84,White Rats; [2],2730 mg/kg
same,LD100,White Rats; [2],2945 mg/kg
same,LD50,White Rats; [3],2300 (2079.5-2520.5) mg/kg
same,MTD,White Rats; [3],400 mg/kg
same,"side effects, such as pronounced hypnotic action, atony, slowness or dystaxia","female cats; experimental group female cats, during the experiment",No side effects
same,start of the sedative action after the product administration,female cats; [4],30 min
same,time the sedative action remained,female cats; [4],at least 6 hours
same,time to maximum sedative action (substantially complete disappearance of estrous behavior signs),female cats; [4],1 h
same,Total intensity of heat signs after the product administration (points) after 30 minutes,female cats; [5],5 points (3×) and 6 points and 4 points (2×)
same,Total intensity of heat signs after the product administration (points) after 1 hour,female cats; [5],0 points (4×) and 1 points (2×)
same,Total intensity of heat signs after the product administration (points) after 3 hours,female cats; [5],1 points (5×) and 2 points
same,Total intensity of heat signs after the product administration (points) after 6 hours,female cats; [5],2 points (4×) and 1 points (2×)
same,Total intensity of heat signs after the product administration (points) after 8 hours,female cats; [5],4 points (2×) and 1 points (3×) and 5 points
same,abnormal behaviors,male cats; in vivo,no abnormal behaviors were observed
same,Total intensity of heat signs after the product administration (points) after 30 minutes,male cats; [6],5 points (3×) and 6 points and 4 points (2×)
same,Total intensity of heat signs after the product administration (points) after 3 hours,male cats; [6],1 points (4×) and 2 points (2×)
same,Total intensity of heat signs after the product administration (points) after 6 hours,male cats; [6],2 points (4×) and 1 points (2×)
same,% of deaths,White Mice; 400 mg/kg intragastric,0%
same,Number of Animals dead,White Mice; 400 mg/kg intragastric,0
same,% of deaths,White Mice; 800 mg/kg intragastric,10.0%
same,Number of Animals dead,White Mice; 800 mg/kg intragastric,1
same,% of deaths,White Mice; 1600 mg/kg intragastric,70.0%
same,Number of Animals dead,White Mice; 1600 mg/kg intragastric,7
same,% of deaths,White Mice; 2000 mg/kg intragastric,100.0%
same,Number of Animals dead,White Mice; 2000 mg/kg intragastric,10
same,% of deaths,White Mice; 2500 mg/kg intragastric,100.0%
same,Number of Animals dead,White Mice; 2500 mg/kg intragastric,10
same,% of deaths,White Mice; 3000 mg/kg intragastric,100.0%
same,Number of Animals dead,White Mice; 3000 mg/kg intragastric,10
same,Hazard class according to GOST 12.1.007-76,White Mice; classified from the LD50 values in mice and rats,Hazard Class III
same,LD16,White Mice; [2],840 mg/kg
same,LD84,White Mice; [2],1690 mg/kg
same,LD100,White Mice; [2],1935 mg/kg
same,LD50,White Mice; [3],1200 (1091.6-1308.4) mg/kg
same,MTD,White Mice; [3],400 mg/kg
